# Results from PubChem BioAssay AID1508612.
# Assay: passive permeability, PAMPA, ADME assay (AID 1508612)
# Settings: pH 7.4, 30.0 min, 50.0 µM
row,Compound,Papp [nm/s]
1,COc1ccc(N(C)C(=O)c2cc3c(s2)-c2ccccc2OC3)cc1,8220
2,Cc1ccc(S(=O)(=O)Nc2cccc(C(=O)Nc3nc(-c4ccccc4)cs3)c2Cl)cc1,< 10
3,O=C(NCCCN1CCCC1=O)c1ccc(-c2ncc3cnc(-c4ccccc4)cn23)cc1,2920
4,O=C(CNC(=O)c1cnccn1)NC1CCCc2c1[nH]c1ccc(Cl)cc21 (configuration not stated),> 10000
5,O=C1Nc2ccc(C(=O)c3ccco3)cc2/C1=C/c1cc(Cl)c(O)c(Cl)c1,412
6,COc1ccc(OC)c(CNc2ncnc3onc(C)c23)c1,3660
7,CC(=O)c1c(C)[nH]c(C(=O)Nc2ccc(C)c(S(=O)(=O)Nc3ccc(Br)cc3)c2)c1C,1080
8,Cc1cccc(-c2cc(NC(=O)c3ccccc3C)n(-c3ccccc3)n2)c1,6570
9,N#Cc1ccc(N2N=C3c4ccc(C(=O)O)cc4CC[C@@H]3[C@@H]2C2CCCC2)cc1Cl,2720
10,Cc1ccc(S(=O)(=O)Nc2cnccc2C(=O)Nc2ccc(-c3nc4ccccc4[nH]3)cc2)cc1,22
11,Clc1ccc2ncc(-c3cccc(NC4CCNCC4)n3)n2c1,8070
12,Cc1nn2c(c1-c1ccccc1-c1ccccc1)N(CCC(C)C)CCC2,5320
13,CCN(CC)S(=O)(=O)c1ccc(N2CCCC2)c(NS(=O)(=O)c2ccc(C)cc2)c1,2530
14,CSc1ccc(-c2cnc(N3CCC(C(N)=O)CC3)s2)cc1,589
15,O=C(Nc1nc(-c2ccccc2)cs1)c1ccncc1NS(=O)(=O)c1cccc2cccnc12,4450
16,CCN1CCN(C(=O)c2cc(-c3ccc(F)cc3)c3nncn3n2)CC1,1590
17,Fc1ccc(-c2nc(-c3ccncc3)nc3ccccc23)cc1F,> 10000
18,O=C1Nc2ccccc2/C1=C/c1ccc[nH]1,6060
19,CCOc1ccc(-c2csc(N3CCC(C(N)=O)CC3)n2)cc1,> 10000
20,CCOC(=O)N1CCc2c(sc(NCc3ccc(N(C)C)cc3)c2C(=O)Nc2ccc(OC)cc2)C1,585
21,O=C(O)c1ccccc1C(=O)Nc1ccc(-c2ccccc2)cc1,34.9
22,CNC(=O)c1cccc(-c2cnc(Nc3cccc(C(F)(F)F)c3)c3c2CCO3)c1,589
23,CC(=O)c1c(C)[nH]c(C(=O)Nc2cccc([S+](=O)([O-])Nc3ccccc3C)c2)c1C,6280
24,O=C([C@@H]1CCCN(c2ccc3[nH]c(C4(n5cc(Cl)cn5)CC4)nc3n2)C1)N1CCCC1,2250
25,O=C(c1ccc2c(c1)OCO2)N1CCC(Cc2nc(-c3cnccn3)no2)CC1,719
26,CC(C)COc1ccc(-c2ccc(=O)n(CC(=O)NCCc3ccccc3)n2)cc1,> 10000

row,Compound,Papp [nm/s]
1,COc1ccc(C2c3c(oc4ccc(Cl)cc4c3=O)C(=O)N2CCCN(C)C)cc1OC (configuration not stated),2350
2,COc1ccc(-c2ccc3ncc(Nc4cccnc4OC)n3n2)cn1,> 10000
3,COCCNc1ncnc2onc(-c3ccc(F)cc3)c12,4580
4,Cc1ccc(S(=O)(=O)Nc2ccc(C(=O)Nc3nc(-c4ccccc4)cs3)cc2Cl)cc1,240
5,Cc1noc([C@@H]2CN(C(=O)c3nn(C)c4ccccc34)C[C@H]2CO)n1,842
6,Cc1noc(C)c1C(=O)N1CCC2(CC1)CCN(C(c1ccccc1)c1ccccc1)CC2,> 10000
7,CSc1ccc(C(=O)c2[nH]c(=O)[nH]c2C)cc1,287
8,O=S(=O)(Nc1nccs1)c1ccc(NCc2cc(Cl)ccc2O)cc1,108
9,Cc1cc(Nc2ccc(Br)c(C)c2)n2nc(C)nc2n1,8740
10,Nc1nc(Nc2ccc(S(N)(=O)=O)cc2)n(C(=S)Nc2c(F)cccc2F)n1,60.7
11,CN(C)c1cc(-c2nc(Nc3ccc(F)c(F)c3)c3ccccc3n2)ccn1,> 10000
12,Cc1ccc(S(=O)(=O)Nc2cnccc2C(=O)Nc2cccc3ccccc23)cc1,2880
13,CCCN1CNc2c(c(=O)[nH]c(=S)n2Cc2ccc(OC)c(OC)c2)C1,550
14,Cc1noc(-c2cn(C3CCN(C(=O)c4ccc(OC(F)(F)F)cc4)CC3)nn2)n1,102
15,Cc1ccnc(C)c1C(=O)Nc1cccc([S+](=O)([O-])N(C)C)c1,985
16,COc1cccc(CNc2ccc(S(=O)(=O)Nc3nc4ccccc4o3)cc2)c1O,1060
17,Cc1ccc(-c2cc(C(=O)Nc3ncco3)c3ccccc3n2)cc1C,7980
18,Cc1cccc(-n2ncc3c2CCCC3NC(=O)c2c(F)ccc(F)c2F)c1C (configuration not stated),9160
19,COC(=O)c1cc2occc2n1Cc1nc(-c2ccc(C)cc2)oc1C,403
20,O=C(NCCc1ccccn1)C1CC(=O)N(c2n[nH]c3cc(Br)ccc23)C1 (configuration not stated),< 10
21,CC(C)(O)/C=C\C(=O)[C@](C)(O)[C@H]1[C@H](O)C[C@]2(C)[C@@H]3CC=C4[C@@H](C=C(O)C(=O)C4(C)C)[C@]3(C)C(=O)C[C@@]12C,1840
22,COCCN1CCNc2nc(COc3ccc(C(C)C)cc3)n(Cc3ccccc3)c2C1=O,120
23,CC(=O)N1CCc2c(sc3c2c(=O)n(-c2ccccc2)c(=O)n3CC(=O)c2ccccc2)C1,7140
24,Cc1cnc(-c2ccccc2C(C)(C)C)nc1NCc1ccc(-n2ccnn2)cc1,> 10000
25,Cc1cc(Br)ccc1NC(=O)C(NS(=O)(=O)c1cccs1)c1ccccc1 (configuration not stated),< 10
26,COc1ccccc1Nc1ccnc(N2CCN(C(=O)c3ccc(C)cc3)CC2)n1,> 10000
